{
  "source": "ChEMBL document CHEMBL5465560",
  "about": "“Selectivity Literature for EUbOPEN Chemogenomic Library” (2024)",
  "key": {"[1]": {"biological_target": "Serine/threonine-protein kinase OSR1 (Homo sapiens) (UniProt O95747)", "sequence (O95747 2-527 limits assumed)": "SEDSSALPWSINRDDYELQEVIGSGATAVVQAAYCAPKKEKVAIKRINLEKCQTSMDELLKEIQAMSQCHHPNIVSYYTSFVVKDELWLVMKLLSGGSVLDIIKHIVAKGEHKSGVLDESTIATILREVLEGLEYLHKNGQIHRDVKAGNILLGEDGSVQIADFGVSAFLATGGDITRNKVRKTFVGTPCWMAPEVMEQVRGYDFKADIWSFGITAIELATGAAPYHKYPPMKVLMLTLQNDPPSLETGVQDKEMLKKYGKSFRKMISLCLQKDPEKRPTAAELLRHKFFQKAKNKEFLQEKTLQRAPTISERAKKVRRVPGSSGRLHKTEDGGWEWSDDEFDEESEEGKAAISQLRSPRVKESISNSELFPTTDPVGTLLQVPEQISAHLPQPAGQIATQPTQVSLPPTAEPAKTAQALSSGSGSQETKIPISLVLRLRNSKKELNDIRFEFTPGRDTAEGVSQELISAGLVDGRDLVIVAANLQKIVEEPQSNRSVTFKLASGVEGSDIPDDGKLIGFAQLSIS", "assay": "Selectivity interaction (Kinase panel (DSF assay)) EUB0001559a OXSR1"}, "[2]": {"biological_target": "Cyclin-dependent kinase-like 3 (Homo sapiens) (UniProt Q8IVW4)", "sequence (Q8IVW4 whole entry, looked up)": "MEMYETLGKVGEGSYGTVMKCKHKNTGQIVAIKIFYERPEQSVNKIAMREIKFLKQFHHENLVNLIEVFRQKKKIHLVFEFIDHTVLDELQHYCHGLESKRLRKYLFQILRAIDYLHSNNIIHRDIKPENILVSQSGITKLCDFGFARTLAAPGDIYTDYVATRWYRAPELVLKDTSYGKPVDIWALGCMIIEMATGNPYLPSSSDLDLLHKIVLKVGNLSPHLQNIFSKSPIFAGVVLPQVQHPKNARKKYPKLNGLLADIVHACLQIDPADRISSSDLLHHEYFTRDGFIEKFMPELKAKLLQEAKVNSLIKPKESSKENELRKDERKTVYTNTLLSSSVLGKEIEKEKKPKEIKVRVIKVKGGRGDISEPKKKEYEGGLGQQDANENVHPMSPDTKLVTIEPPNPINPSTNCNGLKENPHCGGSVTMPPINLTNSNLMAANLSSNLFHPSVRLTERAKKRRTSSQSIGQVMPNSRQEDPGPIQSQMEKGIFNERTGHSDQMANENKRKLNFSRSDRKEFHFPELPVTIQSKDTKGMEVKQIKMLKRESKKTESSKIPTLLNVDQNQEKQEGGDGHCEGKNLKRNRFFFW", "assay": "Selectivity interaction (KinomeScan (DiscoverX)) EUB0000595a CDKL3", "details": "at 10 µM"}, "[3]": {"biological_target": "Tyrosine-protein kinase receptor Tie-1 (Homo sapiens) (UniProt P35590)", "sequence (P35590 whole entry)": "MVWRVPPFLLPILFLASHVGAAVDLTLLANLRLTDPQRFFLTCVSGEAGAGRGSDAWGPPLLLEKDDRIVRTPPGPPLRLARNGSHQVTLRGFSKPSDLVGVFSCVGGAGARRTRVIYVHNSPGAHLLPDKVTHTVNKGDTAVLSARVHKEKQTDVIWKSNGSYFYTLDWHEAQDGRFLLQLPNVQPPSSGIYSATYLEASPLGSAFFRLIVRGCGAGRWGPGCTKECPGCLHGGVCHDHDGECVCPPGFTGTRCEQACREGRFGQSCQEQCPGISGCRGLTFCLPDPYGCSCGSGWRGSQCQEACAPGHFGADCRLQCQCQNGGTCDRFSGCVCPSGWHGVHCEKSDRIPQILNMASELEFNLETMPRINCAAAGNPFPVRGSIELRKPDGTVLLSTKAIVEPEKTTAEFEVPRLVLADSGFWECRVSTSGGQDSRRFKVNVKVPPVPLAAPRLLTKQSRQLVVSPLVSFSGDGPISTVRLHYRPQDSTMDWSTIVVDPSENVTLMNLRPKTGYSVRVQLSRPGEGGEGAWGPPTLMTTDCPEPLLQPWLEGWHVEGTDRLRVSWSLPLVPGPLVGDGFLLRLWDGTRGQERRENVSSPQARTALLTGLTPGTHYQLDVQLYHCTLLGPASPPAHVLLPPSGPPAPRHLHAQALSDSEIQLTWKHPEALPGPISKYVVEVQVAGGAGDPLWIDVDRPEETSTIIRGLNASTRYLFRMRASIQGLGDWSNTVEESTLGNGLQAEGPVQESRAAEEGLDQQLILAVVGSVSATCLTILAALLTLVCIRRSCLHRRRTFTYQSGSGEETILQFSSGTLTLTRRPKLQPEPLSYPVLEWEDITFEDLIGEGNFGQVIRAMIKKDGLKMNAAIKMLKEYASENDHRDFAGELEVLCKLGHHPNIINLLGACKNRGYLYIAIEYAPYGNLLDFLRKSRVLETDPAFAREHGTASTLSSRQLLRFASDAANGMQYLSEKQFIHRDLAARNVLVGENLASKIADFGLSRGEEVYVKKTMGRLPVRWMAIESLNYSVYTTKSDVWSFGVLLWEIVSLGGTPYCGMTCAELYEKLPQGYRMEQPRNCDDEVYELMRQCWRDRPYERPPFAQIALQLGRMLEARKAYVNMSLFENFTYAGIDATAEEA", "assay": "Selectivity interaction (KinomeScan (DiscoverX)) EUB0000045b TIE1"}, "[4]": {"tested_on": "Proto-oncogene tyrosine-protein kinase receptor Ret (Homo sapiens), P07949 [M918T]", "sequence (P07949 whole entry M918T)": "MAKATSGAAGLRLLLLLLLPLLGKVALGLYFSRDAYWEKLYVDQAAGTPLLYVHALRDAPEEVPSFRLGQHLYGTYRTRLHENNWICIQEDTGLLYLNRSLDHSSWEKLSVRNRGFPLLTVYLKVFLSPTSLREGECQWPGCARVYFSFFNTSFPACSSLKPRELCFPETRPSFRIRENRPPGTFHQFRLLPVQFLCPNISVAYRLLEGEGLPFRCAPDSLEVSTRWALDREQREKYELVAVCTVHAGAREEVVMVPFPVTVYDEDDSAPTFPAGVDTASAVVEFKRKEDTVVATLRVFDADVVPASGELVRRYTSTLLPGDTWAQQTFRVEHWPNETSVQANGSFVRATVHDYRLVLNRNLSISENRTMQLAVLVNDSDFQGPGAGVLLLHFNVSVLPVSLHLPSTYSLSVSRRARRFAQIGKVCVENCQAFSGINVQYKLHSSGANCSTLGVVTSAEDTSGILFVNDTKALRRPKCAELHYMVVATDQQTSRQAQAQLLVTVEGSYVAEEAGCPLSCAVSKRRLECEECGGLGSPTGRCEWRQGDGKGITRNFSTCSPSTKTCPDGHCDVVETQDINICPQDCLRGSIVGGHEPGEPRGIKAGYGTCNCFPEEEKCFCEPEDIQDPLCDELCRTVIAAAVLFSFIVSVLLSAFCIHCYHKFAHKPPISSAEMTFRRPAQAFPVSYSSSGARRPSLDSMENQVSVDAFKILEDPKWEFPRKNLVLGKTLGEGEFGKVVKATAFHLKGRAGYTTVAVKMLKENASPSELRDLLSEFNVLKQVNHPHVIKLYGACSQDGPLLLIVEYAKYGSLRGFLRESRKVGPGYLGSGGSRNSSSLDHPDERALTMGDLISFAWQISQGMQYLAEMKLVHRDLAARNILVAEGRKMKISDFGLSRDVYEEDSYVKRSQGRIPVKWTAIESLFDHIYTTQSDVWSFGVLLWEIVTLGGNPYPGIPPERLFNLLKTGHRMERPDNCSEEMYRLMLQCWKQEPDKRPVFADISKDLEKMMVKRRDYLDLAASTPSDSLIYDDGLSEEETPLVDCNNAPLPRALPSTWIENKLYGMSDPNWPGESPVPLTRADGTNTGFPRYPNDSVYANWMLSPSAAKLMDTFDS", "assay": "(§1) Selectivity interaction (KinomeScan (DiscoverX)) EUB0001079a RET", "details": "at 1 µM"}, "[5]": {"tested_on": "Proto-oncogene tyrosine-protein kinase receptor Ret (Homo sapiens), P07949 [V804L]", "sequence (P07949 whole entry V804L)": "as the sequence (P07949 whole entry M918T) above, with V804L, T918M counted along it", "assay": "as §1", "details": "at 1 µM"}, "[6]": {"tested_on": "Proto-oncogene tyrosine-protein kinase receptor Ret (Homo sapiens), P07949 [V804M]", "sequence (P07949 whole entry V804M)": "as the sequence (P07949 whole entry M918T) above, with V804M, T918M counted along it", "assay": "as §1", "details": "at 1 µM"}, "[7]": {"biological_target": "Proto-oncogene tyrosine-protein kinase receptor Ret (Homo sapiens, UniProt P07949)", "sequence (P07949 whole entry)": "as the sequence (P07949 whole entry M918T) above, with T918M counted along it", "assay": "as §1", "details": "at 1 µM"}, "[8]": {"biological_target": "Casein kinase II subunit alpha' (Homo sapiens) (UniProt P19784)", "sequence (P19784 whole entry, looked up)": "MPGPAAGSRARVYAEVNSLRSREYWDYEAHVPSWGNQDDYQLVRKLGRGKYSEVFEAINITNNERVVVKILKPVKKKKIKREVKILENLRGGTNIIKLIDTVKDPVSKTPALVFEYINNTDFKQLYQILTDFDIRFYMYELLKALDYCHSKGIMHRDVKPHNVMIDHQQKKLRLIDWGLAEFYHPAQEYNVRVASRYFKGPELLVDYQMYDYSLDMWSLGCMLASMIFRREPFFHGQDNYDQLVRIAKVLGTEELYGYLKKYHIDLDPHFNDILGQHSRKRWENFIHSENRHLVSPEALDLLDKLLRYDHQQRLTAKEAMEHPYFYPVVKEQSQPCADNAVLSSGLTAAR", "assay": "Selectivity interaction (KinomeScan (DiscoverX)) EUB0000229b CSNK2A2", "details": "at 10 µM"}, "[9]": {"biological_target": "Angiopoietin-1 receptor (Homo sapiens) (UniProt Q02763)", "sequence (Q02763 whole entry)": "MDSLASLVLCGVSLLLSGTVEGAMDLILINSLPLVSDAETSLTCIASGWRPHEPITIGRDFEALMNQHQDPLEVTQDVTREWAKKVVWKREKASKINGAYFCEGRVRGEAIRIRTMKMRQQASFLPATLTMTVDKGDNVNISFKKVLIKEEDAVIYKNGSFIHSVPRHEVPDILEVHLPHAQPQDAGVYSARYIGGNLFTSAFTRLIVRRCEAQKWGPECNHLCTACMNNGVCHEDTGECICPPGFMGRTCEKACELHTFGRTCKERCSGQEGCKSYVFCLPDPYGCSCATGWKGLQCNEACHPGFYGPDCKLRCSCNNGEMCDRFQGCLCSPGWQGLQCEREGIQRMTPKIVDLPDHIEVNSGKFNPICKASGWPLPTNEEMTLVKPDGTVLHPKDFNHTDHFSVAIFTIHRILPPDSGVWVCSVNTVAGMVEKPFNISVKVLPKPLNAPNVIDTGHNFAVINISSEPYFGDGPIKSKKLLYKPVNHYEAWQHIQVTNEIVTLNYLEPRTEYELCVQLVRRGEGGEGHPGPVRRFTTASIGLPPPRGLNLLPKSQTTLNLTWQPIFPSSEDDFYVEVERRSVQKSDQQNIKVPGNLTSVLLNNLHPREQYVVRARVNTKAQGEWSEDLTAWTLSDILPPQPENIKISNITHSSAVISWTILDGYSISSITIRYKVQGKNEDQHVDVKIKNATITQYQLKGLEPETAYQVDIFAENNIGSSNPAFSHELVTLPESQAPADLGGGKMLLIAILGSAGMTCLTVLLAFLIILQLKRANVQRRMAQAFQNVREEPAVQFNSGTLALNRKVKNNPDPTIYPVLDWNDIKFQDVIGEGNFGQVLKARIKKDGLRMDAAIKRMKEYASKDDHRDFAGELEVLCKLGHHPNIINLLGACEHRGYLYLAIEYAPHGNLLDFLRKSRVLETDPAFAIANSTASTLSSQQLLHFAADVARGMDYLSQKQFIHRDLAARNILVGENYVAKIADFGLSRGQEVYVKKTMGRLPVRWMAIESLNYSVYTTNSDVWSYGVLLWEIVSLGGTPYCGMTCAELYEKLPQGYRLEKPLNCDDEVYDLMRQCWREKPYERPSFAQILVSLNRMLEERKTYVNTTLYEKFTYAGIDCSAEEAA", "assay": "Selectivity interaction (KinomeScan (DiscoverX)) EUB0000092b TEK", "details": "at 10 µM"}, "[10]": {"biological_target": "T1, Tyrosine-protein kinase receptor TYRO3 (Homo sapiens) (UniProt Q06418)", "T1 sequence (whole entry)": "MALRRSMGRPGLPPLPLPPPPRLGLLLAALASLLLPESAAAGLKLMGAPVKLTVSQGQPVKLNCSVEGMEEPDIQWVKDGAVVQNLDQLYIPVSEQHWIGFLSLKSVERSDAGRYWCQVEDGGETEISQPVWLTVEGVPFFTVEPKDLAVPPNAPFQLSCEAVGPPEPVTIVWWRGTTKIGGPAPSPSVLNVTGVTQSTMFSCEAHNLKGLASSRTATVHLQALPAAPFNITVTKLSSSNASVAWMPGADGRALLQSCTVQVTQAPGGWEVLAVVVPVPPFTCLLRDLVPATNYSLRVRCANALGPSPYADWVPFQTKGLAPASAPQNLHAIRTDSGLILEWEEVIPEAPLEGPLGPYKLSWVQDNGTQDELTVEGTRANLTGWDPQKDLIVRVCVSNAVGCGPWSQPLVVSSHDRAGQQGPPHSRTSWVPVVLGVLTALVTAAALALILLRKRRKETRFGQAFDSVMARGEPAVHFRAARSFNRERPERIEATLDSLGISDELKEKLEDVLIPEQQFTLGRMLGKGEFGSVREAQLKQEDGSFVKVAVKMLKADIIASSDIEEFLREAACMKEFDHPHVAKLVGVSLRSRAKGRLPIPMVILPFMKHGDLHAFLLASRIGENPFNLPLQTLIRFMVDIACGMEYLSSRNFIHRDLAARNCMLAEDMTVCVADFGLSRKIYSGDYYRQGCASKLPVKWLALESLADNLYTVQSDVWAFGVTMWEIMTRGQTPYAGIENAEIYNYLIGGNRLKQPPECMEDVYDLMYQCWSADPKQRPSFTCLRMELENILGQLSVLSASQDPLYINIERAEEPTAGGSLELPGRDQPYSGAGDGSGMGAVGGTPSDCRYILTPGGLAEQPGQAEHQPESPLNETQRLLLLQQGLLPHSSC", "assay": "Selectivity interaction (KinomeScan (DiscoverX)) EUB0000618a TYRO3", "details": "at 10 µM"}, "[11]": {"biological_target": "T2, Serine/threonine-protein kinase tousled-like 1 (Homo sapiens) (UniProt Q9UKI8)", "T2 sequence (whole entry)": "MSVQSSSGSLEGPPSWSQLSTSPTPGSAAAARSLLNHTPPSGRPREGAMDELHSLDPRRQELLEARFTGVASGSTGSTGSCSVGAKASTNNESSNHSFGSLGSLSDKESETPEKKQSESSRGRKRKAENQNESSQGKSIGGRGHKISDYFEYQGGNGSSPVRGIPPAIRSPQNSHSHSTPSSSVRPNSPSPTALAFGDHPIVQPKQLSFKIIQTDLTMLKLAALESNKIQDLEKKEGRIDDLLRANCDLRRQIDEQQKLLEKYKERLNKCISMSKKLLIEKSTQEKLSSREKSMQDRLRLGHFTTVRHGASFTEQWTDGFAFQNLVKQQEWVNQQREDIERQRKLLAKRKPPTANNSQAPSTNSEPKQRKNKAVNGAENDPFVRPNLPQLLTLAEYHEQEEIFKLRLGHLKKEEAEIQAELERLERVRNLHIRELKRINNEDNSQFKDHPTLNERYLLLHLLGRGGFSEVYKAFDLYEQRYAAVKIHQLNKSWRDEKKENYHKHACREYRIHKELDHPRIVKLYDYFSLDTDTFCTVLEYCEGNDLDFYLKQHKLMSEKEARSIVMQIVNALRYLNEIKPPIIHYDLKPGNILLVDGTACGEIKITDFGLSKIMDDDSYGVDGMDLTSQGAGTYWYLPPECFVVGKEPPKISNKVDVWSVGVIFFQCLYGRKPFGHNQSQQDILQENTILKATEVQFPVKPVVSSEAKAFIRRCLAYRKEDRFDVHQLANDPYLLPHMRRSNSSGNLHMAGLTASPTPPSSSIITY", "assay": "Selectivity interaction (ActivX KiNativ screen (ex vivo kinase selectivity in human PBMCs)) EUB0001619a TLK1", "assay_type": "cell-based", "details": "PBMC, at 1 µM"}},
  "data": [
    {"compound": "CN(C(=O)c1cnn2cccnc12)c1cc2c(cc1N1CCOCC1)C(=O)N(C[C@@H](F)C(C)(C)O)C2", "values": [
      {"measurement": "dTM", "setting": "[1]", "value": 0.3, "unit": "K"}
    ]},
    {"compound": "COCC(=O)NC/C=C/c1ccc2ncnc(Nc3ccc(Oc4ccc(C)nc4)c(C)c3)c2c1", "note": "[CP-724714]", "values": [
      {"measurement": "% of control", "setting": "[2]", "value": 100, "unit": "%"}
    ]},
    {"compound": "C=CC(=O)Nc1cc(-n2c(=O)ccc3cnc4ccc(-c5ccc(NS(C)(=O)=O)cc5)cc4c32)ccc1C", "values": [
      {"measurement": "% of control", "setting": "[3]; at 1 µM", "value": 100, "unit": "%"},
      {"measurement": "% of control", "setting": "[3]; at 10 µM", "value": 89, "unit": "%"}
    ]},
    {"compound": "Nc1cnc(N2CCc3cc(S(=O)(=O)Nc4c(F)cc(Cl)cc4F)cc(N4CCCC4=O)c32)nc1", "note": "[TP-020n]", "values": [
      {"measurement": "% of control", "setting": "[4]", "value": 100, "unit": "%"},
      {"measurement": "% of control", "setting": "[5]", "value": 99, "unit": "%"},
      {"measurement": "% of control", "setting": "[6]", "value": 100, "unit": "%"},
      {"measurement": "% of control", "setting": "[7]", "value": 89, "unit": "%"}
    ]},
    {"compound": "COc1cc(N(C)c2ccnc3ccc(C(F)(F)F)cc23)cc(OC)c1OC", "values": [
      {"measurement": "% binding", "setting": "[8]", "value": 100, "unit": "%"}
    ]},
    {"compound": "CCC(=O)N1CCN(c2ccc(-n3c(=O)ccc4cnc5ccc(-c6cnc7ccccc7c6)cc5c43)cc2C(F)(F)F)CC1", "values": [
      {"measurement": "% of control", "setting": "[9]", "value": 19, "unit": "%"}
    ]},
    {"compound": "O[C@H]1CC[C@H](Nc2ncc3nc(Nc4c(F)cc(F)cc4F)n([C@H]4CCOC4)c3n2)CC1", "values": [
      {"measurement": "% of control", "setting": "[10]", "value": 100, "unit": "%"}
    ]},
    {"compound": "N#Cc1cccc(-c2c[nH]c3ncnc(N4CCOCC4)c23)c1", "values": [
      {"measurement": "% of inhibition", "setting": "[11]", "value": -4, "unit": "%"}
    ]}
  ]
}
